{"source": "patent US20210000815A1", "about": "“PHARMACOKINETIC ENHANCEMENT OF EZH2 INHIBITORS THROUGH COMBINATION THERAPIES” (Constellation Pharmaceuticals, Inc., priority 2017, published 2021)", "key": {"[1]": {"experiment": "Single-dose pharmacokinetics of Compound 1 with or without cobicistat pretreatment in healthy subjects", "format": "in vivo, human", "protocol": "(§1) Healthy subjects were treated with Compound 1 with or without pretreatment with cobicistat. A single 400 mg dose of Compound 1 was administered under fasted conditions. There was a 7-day washout between administrations of the two single doses of Compound 1. Compound 1 was administered alone on Day 1 of Period 1 and administered in the presence of cobicistat on Day 1 of Period 2. Cobicistat was administered at a dose of 150 mg once daily for three days, with the third dose preceding the single dose of Compound 1 by two hours. Blood samples were collected for pharmacokinetic analysis of Compound 1 on Day 1 of each period at the following time points 0 (predose), 0.5, 1, 1.5, 2, 3, 4, 6, 8, 10, and 24 hours after the single dose of Compound 1."}, "CYP3A": {"tested_on": "CYP3A", "experiment": "Metabolism by and induction of hepatic enzyme CYP3A", "format": "in vitro ADME"}, "[2]": {"experiment": "Exposure of Compound 1 upon multiple-dose administration", "format": "in vivo"}, "[3]": {"experiment": "Adverse events in healthy subjects treated with Compound 1 with and without cobicistat", "format": "in vivo, human", "protocol": "as §1\nAll six subjects were males between the ages of 31 and 52 years. Three of the 6 subjects (50%) treated with Compound 1 with and without cobicistat reported a total of 6 adverse events. Diarrhea, reported in 2 subjects, was the only adverse event reported by more than one subject. The other adverse events reported by a single subject each included: abdominal pain, back pain, groin pain, and upper respiratory tract infection. Three of the 6 adverse events were considered to be related to study drug: concurrent events of diarrhea and abdominal pain and the other case of diarrhea. All adverse events were reported in Period 2, after dosing of all study drugs had been completed."}, "[4]": {"conditions": "single 400 mg Compound 1 with cobicistat 150 mg pretreatment vs alone"}, "[5]": {"conditions": "single 400 mg Compound 1 with cobicistat 150 mg pretreatment vs alone, lower bound over all subjects"}, "[6]": {"conditions": "6 healthy male subjects, Compound 1 with and without cobicistat"}}, "note": "Entries after “also recorded” stand apart in the source; their conditions may differ.", "data": [{"smiles": "COc1cc(C)[nH]c(=O)c1CNC(=O)c1c(C)n([C@H](C)C2CCN(CC(F)(F)F)CC2)c2ccccc12", "note": "[Compound 1, (R)—N-((4-methoxy-6-methyl-2-oxo-1,2-dihydropyridin-3-yl)methyl)-2-methyl-1-(1-(1-(2,2,2-trifluoroethyl)piperidin-4-yl)ethyl)-1H-indole-3-carboxamide]", "values": [{"measurement": "half-life", "setting": "[1]; male, human, plasma, oral, all subjects treated with Compound 1 and cobicistat", "value": "< 5", "unit": "h"}, {"measurement": "Clearance decrease in the presence of cobicistat", "setting": "[1]; [4]", "value": 6.9, "unit": "fold"}, {"measurement": "Effect of cobicistat on Tmax", "setting": "[1]; [4]", "value": "unaffected"}, {"measurement": "Effect of cobicistat on terminal half-life (T1/2)", "setting": "[1]; [4]", "value": "unaffected; also recorded: little or no effect"}, {"measurement": "AUC increase in the presence of cobicistat, all subjects (least)", "setting": "[1]; [5]", "value": "≥ 4.9", "unit": "fold"}, {"measurement": "Cmax increase in the presence of cobicistat, all subjects (least)", "setting": "[1]; [5]", "value": "≥ 2.8", "unit": "fold"}, {"measurement": "Cmin increase in the presence of cobicistat, all subjects (least)", "setting": "[1]; [5]", "value": "≥ 19", "unit": "fold"}, {"measurement": "Exposure of Compound 1 400 mg with cobicistat 150 mg in healthy subjects compared with single 1600 mg dose of Compound 1 alone in patients with lymphoma", "setting": "[1]; single dose", "value": "remarkably similar"}, {"measurement": "CYP3A induction", "setting": "CYP3A", "value": "stronger inducer of CYP3A"}, {"measurement": "Primary metabolizing enzyme", "setting": "CYP3A", "value": "primarily metabolized by the hepatic enzyme CYP3A"}, {"measurement": "Reduction in AUC with multiple doses", "setting": "[2]", "value": "approximately 60%"}, {"measurement": "Number of subjects reporting diarrhea", "setting": "[3]; [6]", "value": 2, "unit": "subjects"}, {"measurement": "Subjects reporting adverse events", "setting": "[3]; [6]", "value": 50, "unit": "%"}, {"measurement": "Total number of adverse events reported", "setting": "[3]; [6]", "value": 6}, {"measurement": "Severity of adverse events", "setting": "[3]; with the exception of a moderate case of upper respiratory tract infection", "value": "mild in severity"}]}]}
